Reference: patent EP4741389A1, “KAT6 INHIBITOR” (Shanghai Qilu Pharmaceutical Research and Development …, priority 2023, dated 2025)

Key:
KAT6B = target: T1, KAT6B (Homo sapiens, UniProt Q8WYB5); test: KATs acetyltransferase enzyme activity assay (TR-FRET), KAT6B; format: biochemical; conditions: Biotin-H3 (1-21) and AcCOA, 90 minutes at room temperature
T1 construct: purchased Active Motif 81224
In short: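 TR-FRET assay in Tris-HCl buffer: enzyme preincubated with compound 15 min at room temperature, then biotin-H3(1-21) peptide and acetyl-CoA added for 90 min at room temperature. Acetylation detected with Eu-anti-acetyl-histone H4 lysine antibody and ULight-streptavidin (60 min), 665/620 nm ratio; IC50 from four-parameter logistic fit.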

[1] = test system: human breast cancer ZR-75-1 cell xenografts; test: In vivo efficacy study in BALB/c nude mouse model with subcutaneous ZR-75-1 xenografts; conditions: for T/C / TGI / Tumor Volume: 0.3 mg/kg; for T/C / TGI: based on tumor volume on day 21 post-administration; for Tumor Volume: day 21 post-administration, female BALB/c nude mice, 7 per group; for anti-tumor effects: ZR-75-1 xenograft model, tumor growth curves FIG. 2, result in words
Excerpt: IV. In vivo efficacy study of test drug Compound 2, Compound 5-P2, Compound 3, and Compound A in a BALB/c nude mouse model with subcutaneously implanted human breast cancer ZR-75-1 cell xenografts
The objective of this experiment is to evaluate the in vivo efficacy of the test drug Compound 2, Compound 5-P2, Compound 3, and Compound A in a BALB/c nude mouse model with subcutaneously implanted human breast cancer ZR-75-1 cell xenografts.
• Species: Mouse; • Strain: BALB/c nude mice; • Age and weight: 6-8 weeks old, weighing 19-26 grams; • Gender: Female; • Supplier: GemPharmatech Co., Ltd.; • Compound source: Compound A: [drawing 190] prepared with reference to patent CN114364672A.
Human breast cancer ZR-75-1 (ATCC, CRL-1500) cells were cultured in vitro as adherent cultures. The culture conditions were: 1640 medium supplemented with 10 vol% FBS, 100 U/mL penicillin, and 100 µg/mL streptomycin, incubated in a 37°C, 5% CO2 cell culture incubator. Routine passaging was performed twice a week. When cell confluence reached 80%-90% and the cell number met the requirements, cells were harvested, counted, and inoculated.
Three days before cell implantation, a 17β-estrogen pellet (0.36 mg) was implanted into the left dorsal side of each mouse. Starting one week after pellet implantation, animals were urinated 2-3 times per week. If necessary, animals were urinated daily.
A mixture containing 10×10^6 ZR-75-1 cells in 100 µL PBS and 100 µL Matrigel (final volume was 200 µL) was subcutaneously implanted into the right dorsal side (upper side) of each mouse. On day 18 after cell implantation, when the average tumor volume reached 138 mm^3, grouping and administration were initiated. Mice with tumor volumes ranging from 100 to 212 mm^3 were selected for the study. Mice were randomly assigned to groups based on body weight and tumor volume, with 7 mice per group. The day of grouping was designated as PG-D0, and administration for all groups started from PG-D0.
The experimental index is to investigate whether tumor growth is inhibited, delayed, or cured. Tumor diameters were measured three times per week using a vernier caliper. Tumor volume was calculated using the formula: V = 0.5a × b^2, where a and b represent the major and minor diameters of the tumor, respectively.
The anti-tumor efficacy of the compounds was evaluated using TGI (%) or the relative tumor proliferation rate T/C (%). TGI (%), reflects the tumor growth inhibition rate. TGI (%) was calculated as: TGI (%) = [1 - (Mean tumor volume of a treatment group at the end of administration - Mean tumor volume of the same treatment group at the start of administration) / (Mean tumor volume of the vehicle control group at the end of treatment - Mean tumor volume of the vehicle control group at the start of treatment)] × 100%.
Relative Tumor Proliferation Rate T/C (%): The calculation formula is as follows: T/C% = TRTV / CRTV ×100 % (TRTV: RTV of the treatment group; CRTV: RTV of the negative control group). The relative tumor volume (RTV) was calculated based on tumor measurement results using the formula RTV = Vt /V0, where V0 is the tumor volume of each mouse measured at the start of grouping and administration (i.e., d0), and Vt is the tumor volume of each mouse at a specific measurement time. The mean value for each group was then calculated. V0 and Vt correspond to tumor volume data from the same mouse.

T1 sequence (Q8WYB5 whole entry): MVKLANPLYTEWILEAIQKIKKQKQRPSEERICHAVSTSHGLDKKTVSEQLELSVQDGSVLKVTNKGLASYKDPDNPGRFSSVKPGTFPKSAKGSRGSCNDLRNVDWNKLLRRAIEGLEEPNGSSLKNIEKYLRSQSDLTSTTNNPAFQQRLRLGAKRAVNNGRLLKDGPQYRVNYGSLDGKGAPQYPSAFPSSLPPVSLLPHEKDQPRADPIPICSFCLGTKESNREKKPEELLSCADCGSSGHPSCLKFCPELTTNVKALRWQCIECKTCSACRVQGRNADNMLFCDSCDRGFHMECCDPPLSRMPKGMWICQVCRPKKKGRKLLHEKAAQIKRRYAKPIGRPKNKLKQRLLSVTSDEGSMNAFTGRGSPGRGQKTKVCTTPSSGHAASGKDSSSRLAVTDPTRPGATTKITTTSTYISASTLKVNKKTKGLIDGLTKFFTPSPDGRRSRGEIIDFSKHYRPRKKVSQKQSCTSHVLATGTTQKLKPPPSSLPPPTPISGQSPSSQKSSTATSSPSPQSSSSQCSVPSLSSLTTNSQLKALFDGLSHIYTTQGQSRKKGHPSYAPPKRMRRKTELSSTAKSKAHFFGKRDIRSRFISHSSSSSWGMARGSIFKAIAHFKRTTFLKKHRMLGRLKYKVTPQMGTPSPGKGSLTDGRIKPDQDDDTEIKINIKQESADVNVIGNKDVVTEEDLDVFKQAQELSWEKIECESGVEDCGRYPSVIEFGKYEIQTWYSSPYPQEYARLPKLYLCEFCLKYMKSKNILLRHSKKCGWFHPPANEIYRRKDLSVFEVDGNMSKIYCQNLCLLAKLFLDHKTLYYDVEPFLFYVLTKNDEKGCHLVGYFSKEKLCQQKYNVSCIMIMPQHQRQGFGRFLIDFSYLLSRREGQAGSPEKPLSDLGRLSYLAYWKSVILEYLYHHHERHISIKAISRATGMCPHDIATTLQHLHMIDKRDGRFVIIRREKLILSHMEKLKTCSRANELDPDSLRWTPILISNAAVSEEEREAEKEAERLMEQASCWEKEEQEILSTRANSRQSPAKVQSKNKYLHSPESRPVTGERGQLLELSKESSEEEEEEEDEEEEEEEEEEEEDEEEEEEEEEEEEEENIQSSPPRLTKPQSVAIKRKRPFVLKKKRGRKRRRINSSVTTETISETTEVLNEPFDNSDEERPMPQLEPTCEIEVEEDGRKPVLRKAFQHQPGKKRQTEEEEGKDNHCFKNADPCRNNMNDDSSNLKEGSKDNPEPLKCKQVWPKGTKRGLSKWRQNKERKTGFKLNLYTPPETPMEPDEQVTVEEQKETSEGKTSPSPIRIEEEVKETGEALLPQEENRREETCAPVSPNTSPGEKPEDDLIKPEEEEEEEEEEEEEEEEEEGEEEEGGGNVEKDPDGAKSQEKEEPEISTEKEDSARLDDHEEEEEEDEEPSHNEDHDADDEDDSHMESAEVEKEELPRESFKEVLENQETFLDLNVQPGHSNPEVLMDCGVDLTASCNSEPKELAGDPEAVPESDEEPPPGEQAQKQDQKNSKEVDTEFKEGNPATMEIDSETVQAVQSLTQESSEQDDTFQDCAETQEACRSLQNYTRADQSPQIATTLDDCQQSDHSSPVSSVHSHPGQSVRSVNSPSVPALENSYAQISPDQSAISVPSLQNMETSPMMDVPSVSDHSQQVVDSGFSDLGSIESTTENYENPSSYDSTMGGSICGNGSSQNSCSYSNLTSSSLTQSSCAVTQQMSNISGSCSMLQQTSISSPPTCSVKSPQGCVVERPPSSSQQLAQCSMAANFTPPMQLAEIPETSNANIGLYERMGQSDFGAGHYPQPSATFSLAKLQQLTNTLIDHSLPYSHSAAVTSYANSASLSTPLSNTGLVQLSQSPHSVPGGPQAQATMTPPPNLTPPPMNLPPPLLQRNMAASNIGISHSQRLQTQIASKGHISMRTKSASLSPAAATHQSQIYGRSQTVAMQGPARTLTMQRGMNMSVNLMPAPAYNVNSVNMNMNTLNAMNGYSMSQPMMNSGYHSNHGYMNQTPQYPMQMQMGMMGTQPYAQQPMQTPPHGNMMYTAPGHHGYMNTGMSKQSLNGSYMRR

## COc1ccc2c(c1S(=O)(=O)Nc1noc3cc(Cn4cccn4)cc(OC)c13)OC[C@@H]1C[C@H]21 [Compound 5-P2, (1aR,7bS)-N-(6-((1H-Pyrazol-1-yl)methyl)-4-methoxybenzo[d]isoxazol-3-yl)-5-methoxy-1,1a,2,7b-tetrahydrocyclopropa[c]chromene-4-sulfonamide]
KAT6B
  IC50: 1.6 nM
[1]
  T/C: 12.10%
  TGI: 105.10%
  Tumor Volume: 102 ± 14 mm^3
  anti-tumor effects: more significant anti-tumor effects compared to Compound A

## COc1ccc2c(c1S(=O)(=O)Nc1noc3cc(Cn4cccn4)cc(OC)c13)OCCCO2 [Compound 2, N-(6-((1H-Pyrazol-1-yl)methyl)-4-methoxybenzo[d]isoxazol-3-yl)-7-methoxy-3,4-dihyd ro-2H-benzo[b][1,4]dioxepine-6-sulfonamide]
KAT6B
  IC50: 25.2 nM
[1]
  T/C: 20.83%
  TGI: 93.97%
  Tumor Volume: 182 ± 39 mm^3
  anti-tumor effects: more significant anti-tumor effects compared to Compound A
